This note sets out measurements from patent US9420799B2, “Method for controlling nematode pests” (Syngenta Participations AG, priority 2011, dated 2016).

This test relates to soybean cyst nematode (SCN). Nature of the test: Yield response field trials: soybean seed treated with Pasteuria nishizawae, compared with seed not treated with Pasteuria. Particulars: for Yield Response for Resistant Varieties / Yield Response for Susceptible Varieties: approx. 1×10^7 spores/seed, percent yield increase vs seeds not treated with Pasteuria, averaged; for Yield Response for Susceptible Varieties: SCN susceptible soybean varieties. It is filed as in vivo, Heterodera glycines. As to the method:
Yield Response Experiment
Multiple field trials were conducted across the United States Midwest region. Baseline nematode populations were determined by sampling from 4 untreated plots. Samples were taken (10 cores per plot) at a depth of 6-8 inches (approx. 15.2-20.3 cm). Samples were stored in a cooler until laboratory assays (eggs/100 cc) were performed.
To allow for sufficient viability to assess results properly, both SCN resistant and susceptible varieties were treated with an insecticide and fungicide seed treatment (CRUISERMAXX seed treatment for beans available from Syngenta Crop Protection, LLC including thiamethoxam (22.61%); mefenoxam (1.70%) and fludioxonil (1.12%)). In addition for some test groups Pasteuria nishizawae treatment was applied at a rate of approximately 1×10^7 spores/seed. Percent yield increase was determined by comparing seeds treated with Pasteuria to those not treated with Pasteuria.
The results of 119 separate trials were sorted according to initial SCN pressure at trial location. Yield data were averaged.

As to Pasteuria nishizawae, the “Yield Response for Resistant Varieties” value was determined as 0.3% (SCN resistant soybean varieties, SCN pressure 0 eggs/100 cc); 0.7% (SCN resistant soybean varieties, SCN pressure 1-500 eggs/100 cc); 2.6% (SCN resistant soybean varieties, SCN pressure 501-1000 eggs/100 cc); 5.2% (SCN resistant soybean varieties, SCN pressure >1000 eggs/100 cc). In addition, the “Yield of resistant varieties, result in words” value (SCN resistant soybean varieties, all pest pressures) is “showed increase yield over non-Pasteuria treated soybean seed regardless of pest pressure”. Further, the “Yield Response for Susceptible Varieties” value is, setting by setting: (SCN pressure 0 eggs/100 cc) 1.3%; (SCN pressure 1-500 eggs/100 cc) 1.0%; (SCN pressure 501-1000 eggs/100 cc) 0.8%; (SCN pressure >1000 eggs/100 cc) 0.0%. The “Yield of varieties with no resistance or tolerance to SCN, result in words” value (soybean varieties having no resistance or tolerance to SCN, benefit mostly in absence of or with low pest pressure) is “generally benefitted from treatment with Pasteuria”.
